Patent US20160281050A1, “METHODS FOR TREATING A CULTURE OF HAEMATOCOCCUS PLUVIALIS FOR CONTAMINATION USING SALT AND HYDROGEN PEROXIDE” (HELIAE DEVELOPMENT LLC, priority 2015, published 2016)

Legend:
[1] = test system: Haematococcus pluvialis (Strain 2); assay: % lysis and culture dry weight in flasks (Example 10);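 also: flask cultures run in duplicate, with duplicate untreated flasks serving as controls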
Source text: Culture samples of Haematococcus pluvialis (Strain 2) were collected on the second day of the culture from open raceway bioreactor #2430 operating in conditions: reactor volume of 170,000 L; Daily PAR not measured; pH of 7.3; and paddlewheel speed of 70. The culture samples were distributed into flasks for culturing, consisting of duplicate untreated controls and duplicate treatments. […] Samples were taken from the flask cultures daily to quantify % lysis and % chytrid infection and cell dry weight was quantified every other day for a duration of 11 days.

[2] = test system: chytrids; assay: % chytrid infection in flasks, salt treatment (Example 12); format: cell-based
Procedure: This test was done side by side in flasks (0.1 L) and in reactors located in a greenhouse operating in conditions: reactor volume of 230 L; Daily PAR of 20 mol m^−2 d^−1; pH (not measured); and paddlewheel speed of 21 RPM. […] The flask cultures were mixed by shaking at 140 rpm and received 300-400 μmol/m^2 s of photosynthetically active radiation (PAR) in 12 hour light cycles and constant supply of 2.5% CO2. The motility of the culture was monitored by visual observation under a microscope. […] Nine 230 L reactors were also seeded with culture from bioreactor #2410 on the same day as the flasks and brought to 2 ppt concentration of salt. Once motility of the cells was reduced to <10% (day 3 of culture for flasks and day 2 for 230 L reactors) the level of salt was elevated to a point between 4-18 ppt and compared to the culture in two reactors remaining at 2 ppt salt. Flasks and 230 L reactors were monitored for percentage of cell lysis via visual observation under a microscope, culture dry weight (biomass accumulation in g/L), and percentage of chytrid infection via visual observation under a microscope. Carotenoid production, a proxy for determining astaxanthin, was quantified every other day of culture in the 230 L reactors using the UV method.

Compound: hydrogen peroxide [H2O2]
- % Lysis ([1]; 0.0105 mL/L 1 time per day for 3 d then every other day, day 0): 0.8 ± 2.0%
- % Lysis ([1]; 0.0105 mL/L 1 time per day for 3 d then every other day, day 3): 0.0 ± 0.0%
- % Lysis ([1]; 0.0105 mL/L 1 time per day for 3 d then every other day, day 4): 1.7 ± 0.0%
- % Lysis ([1]; 0.0105 mL/L 1 time per day for 3 d then every other day, day 5): 1.7 ± 2.4%
- % Lysis ([1]; 0.0105 mL/L 1 time per day for 3 d then every other day, day 6): 3.3 ± 4.7%
- % Lysis ([1]; 0.0105 mL/L 1 time per day for 3 d then every other day, day 7): 0.0 ± 0.0%
- % Lysis ([1]; 0.0105 mL/L 1 time per day for 3 d then every other day, day 8): 0.8 ± 1.2%
- % Lysis ([1]; 0.0105 mL/L 1 time per day for 3 d then every other day, day 9): 0.8 ± 1.2%
- % Lysis ([1]; 0.0105 mL/L 1 time per day for 3 d then every other day, day 10): 0.8 ± 1.2%
- % Lysis ([1]; 0.0105 mL/L 1 time per day, day 0): 0.8 ± 2.0%
- % Lysis ([1]; 0.0105 mL/L 1 time per day, day 3): 0.0 ± 0.0%
- % Lysis ([1]; 0.0105 mL/L 1 time per day, day 4): 1.7 ± 0.0%
- % Lysis ([1]; 0.0105 mL/L 1 time per day, day 5): 1.7 ± 0.0%
- % Lysis ([1]; 0.0105 mL/L 1 time per day, day 6): 0.8 ± 2.0%
- % Lysis ([1]; 0.0105 mL/L 1 time per day, day 7): 0.0 ± 0.0%
- % Lysis ([1]; 0.0105 mL/L 1 time per day, day 8): 1.7 ± 2.4%
- % Lysis ([1]; 0.0105 mL/L 1 time per day, day 9): 7.5 ± 8.3%
- % Lysis ([1]; 0.0105 mL/L 1 time per day, day 10): 0.0 ± 0.0%
- percent lysis ([1]; 0.0105 mL/L, for 11 days): under 10%
- % Lysis ([1]; 0.0140 mL/L 1 time per day for 3 d then every other day, day 0): 0.8 ± 2.0%
- % Lysis ([1]; 0.0140 mL/L 1 time per day for 3 d then every other day, day 3): 4.2 ± 1.2%
- % Lysis ([1]; 0.0140 mL/L 1 time per day for 3 d then every other day, day 4): 10.0 ± 8.7%
- % Lysis ([1]; 0.0140 mL/L 1 time per day for 3 d then every other day, day 5): 15.8 ± 5.9%
- % Lysis ([1]; 0.0140 mL/L 1 time per day for 3 d then every other day, day 6): 6.7 ± 0.0%
- % Lysis ([1]; 0.0140 mL/L 1 time per day for 3 d then every other day, day 7): 13.3 ± 4.7%
- % Lysis ([1]; 0.0140 mL/L 1 time per day for 3 d then every other day, day 8): 13.3 ± 2.4%
- % Lysis ([1]; 0.0140 mL/L 1 time per day for 3 d then every other day, day 9): 5.0 ± 2.4%
- % Lysis ([1]; 0.0140 mL/L 1 time per day for 3 d then every other day, day 10): 15.8 ± 12.9%
- % Lysis ([1]; 0.0140 mL/L 1 time per day, day 0): 0.8 ± 2.0%
- % Lysis ([1]; 0.0140 mL/L 1 time per day, day 3): 4.2 ± 1.2%
- % Lysis ([1]; 0.0140 mL/L 1 time per day, day 4): 10.0 ± 8.7%
- % Lysis ([1]; 0.0140 mL/L 1 time per day, day 5): 10.0 ± 2.4%
- % Lysis ([1]; 0.0140 mL/L 1 time per day, day 6): 9.2 ± 3.5%
- % Lysis ([1]; 0.0140 mL/L 1 time per day, day 7): 20.0 ± 9.4%
- % Lysis ([1]; 0.0140 mL/L 1 time per day, day 8): 6.7 ± 7.0%
- % Lysis ([1]; 0.0140 mL/L 1 time per day, day 9): 21.7 ± 7.1%
- % Lysis ([1]; 0.0140 mL/L 1 time per day, day 10): 9.2 ± 3.5%
- percent lysis reached ([1]; 0.0140 mL/L, by day 7): 20%
- % Lysis ([1]; 0.0175 mL/L 1 time per day for 2 d then every other, day 0): 0.8 ± 2.0%
- % Lysis ([1]; 0.0175 mL/L 1 time per day for 2 d then every other, day 3): 31.7 ± 11.8%
- % Lysis ([1]; 0.0175 mL/L 1 time per day for 2 d then every other, day 4): 22.2 ± 8.5%
- % Lysis ([1]; 0.0175 mL/L 1 time per day for 2 d then every other, day 5): 19.2 ± 17.6%
- % Lysis ([1]; 0.0175 mL/L 1 time per day for 2 d then every other, day 6): 25 ± 0.0%
- percent lysis reached ([1]; 0.0175 mL/L, by day 3 after only being dosed twice): 30%

Compound: [Cl-].[Na+] [NaCl, sodium chloride]
- % Chytrid infection in Flasks ([2]; 2 ppt, 9 d): 82 ± 17%
- % Chytrid infection in Flasks ([2]; 2 ppt, 11 d): 96 ± 4%
- % Chytrid infection in Flasks ([2]; 4 ppt, 9 d): 22 ± 20%
- % Chytrid infection in Flasks ([2]; 4 ppt, 11 d): 85 ± 16%
- % Chytrid infection in Flasks ([2]; 5 ppt, 9 d): 18 ± 16%
- % Chytrid infection in Flasks ([2]; 5 ppt, 11 d): 53 ± 9%
- % Chytrid infection in Flasks ([2]; 6 ppt, 9 d): 8 ± 11%
- % Chytrid infection in Flasks ([2]; 6 ppt, 11 d): 19 ± 27%
- % Chytrid infection in Flasks ([2]; 7 ppt, 9 d): 3 ± 5%
- % Chytrid infection in Flasks ([2]; 7 ppt, 11 d): 0 ± 0%
- % Chytrid infection in Flasks ([2]; 8 ppt, 9 d): 1 ± 1%
- % Chytrid infection in Flasks ([2]; 8 ppt, 11 d): 2 ± 2%
- % Chytrid infection in Flasks ([2]; 9 ppt, 9 d): 1 ± 1%
- % Chytrid infection in Flasks ([2]; 9 ppt, 11 d): 1 ± 1%
- % Chytrid infection in Flasks ([2]; 10 ppt, 9 d): 0 ± 0%
- % Chytrid infection in Flasks ([2]; 10 ppt, 11 d): 0 ± 0%
- % Chytrid infection in Flasks ([2]; 11 ppt, 9 d): 0 ± 0%
- % Chytrid infection in Flasks ([2]; 11 ppt, 11 d): 17 ± 24%
- chytrid infection ([2]; treatments between 7-10 ppt in flasks): 5-10%
